Source: paper PMC8694143 (Microbiology Spectrum, 2021)
No end group written: not given here.

Assays:
[1] = system: MRSA ATCC 33592; experiment: MIC determination in broth; format: cell-based, Staphylococcus aureus
Method in brief: (§1)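 MIC read after unshaken incubation at 37°C of bacteria (∼10^5 CFU/mL, OD 5 × 10^−4) with twofold peptide dilutions in cation-adjusted MH broth.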

[2] = system: MRSA ATCC BAA-1683; experiment: MIC determination in broth; format: cell-based, Staphylococcus aureus; conditions: STIP3 variants, highest conc. tested 100 μg/mL; cation-adjusted MH broth, ~10^5 CFU/mL, 2-fold dilution series, 37°C, 16 h
Method in brief: as §1

[3] = system: MRSA ATCC BAA-2094; experiment: MIC determination in broth; format: cell-based, Staphylococcus aureus; conditions: STIP3 variants, highest conc. tested 100 μg/mL; cation-adjusted MH broth, ~10^5 CFU/mL, 2-fold dilution series, 37°C, 16 h
Method in brief: as §1

[4] = system: MRSA ATCC BAA-2313; experiment: MIC determination in broth; format: cell-based, Staphylococcus aureus; conditions: STIP3 variants, highest conc. tested 100 μg/mL; cation-adjusted MH broth, ~10^5 CFU/mL, 2-fold dilution series, 37°C, 16 h
Method in brief: as §1

[5] = system: MRSA ATCC BAA-41; experiment: MIC determination in broth; format: cell-based, Staphylococcus aureus; conditions: STIP3 variants, highest conc. tested 100 μg/mL; cation-adjusted MH broth, ~10^5 CFU/mL, 2-fold dilution series, 37°C, 16 h
Method in brief: as §1

[6] = system: S. aureus ATCC 29213; experiment: MIC determination in broth; format: cell-based, Staphylococcus aureus; conditions: STIP3 variants, highest conc. tested 100 μg/mL; cation-adjusted MH broth, ~10^5 CFU/mL, 2-fold dilution series, 37°C, 16 h
Method in brief: as §1

[7] = system: S. equorum; experiment: MIC determination in broth; format: cell-based, Staphylococcus equorum; conditions: isolate from the healthy quarter of a dairy cow; MH broth
Description: (§2) The MICs were measured for bioactive peptides identified from the initial screen. Cation-adjusted Mueller-Hinton (MH) broth was used as the growth medium for MIC determination experiments. Bacterial cultures were diluted to an OD of 5 × 10^−4 (∼10^5 CFU/mL) in 200 μL MH broth mixed with peptides in a 2-fold dilution series arrayed in 96-well plates. Plates were incubated without shaking at 30 or 37°C depending on the organism.

[8] = system: Escherichia coli DH10B; experiment: MIC determination in broth; format: cell-based; conditions: MH broth
Description: as §2

[9] = system: Mannheimia haemolytica ATCC 33396; experiment: MIC determination in broth; format: cell-based; conditions: MH broth
Description: as §2

[10] = system: Pseudomonas aeruginosa ATCC 27853; experiment: MIC determination in broth; format: cell-based; conditions: MH broth
Description: as §2

[11] = system: S. scuri; experiment: MIC determination in broth; format: cell-based; conditions: isolate from the healthy quarter of a dairy cow; MH broth
Description: as §2

[12] = Circular dichroism spectroscopy; format: physicochemical; conditions: CD, 50% TFE (vol/vol), peptide 0.2 mg/mL, room temperature
Description: Peptides were dissolved in ultrapure water or 50% TFE (vol/vol) at a concentration of 0.2 mg/mL for spectroscopy. Spectra of samples in a 1 mm pathlength quartz cuvette were recorded from 180 to 260 nm at 0.5 nm steps using an Applied Photophysics Chirascan Plus CD spectrophotometer operating at room temperature.

[13] = system: MRSA ATCC 33592 on 3D EpiDerm skin tissues; experiment: Three-dimensional NHEK skin model of MRSA infection; format: cell-based, Staphylococcus aureus; conditions: 25 μg/mL (4× MIC), 100 μL apical, 16 h after 4 h colonization, 37°C, 5% CO2
Description: 3D EpiDerm skin tissues (MatTek EPI-200-AFAB; antifungal and antibiotic-free; 9 mm) contained within a plastic insert lined with a permeable 0.4 μm membrane were transferred to 12-well plates containing antibiotic assay medium (600 μL/well). A fresh MRSA ATCC 33592 culture in the log phase of growth was centrifuged at 10,000 rpm for 5 min to harvest bacterial cells before resuspension in sterile PBS to an […] 5 × 10^6 CFU/mL. Tissues were incubated with 100 μL of the bacterial cell suspension (5 × 10^5 CFU) for 4 h at 37°C in a humidified 5% CO2 environment. After 4 h, the bacterial cell suspension was removed and the apical surface of each tissue was washed 3 times with PBS to remove nonadherent bacterial cells. Next, the colonized skin tissues were treated with a 100 μL volume of STIP3-29 at 25 μg/mL. An equal volume of sterile PBS was used for untreated control experiments. Tissues were then incubated at 37°C in a humidified 5% CO2 environment for 16 h. […] The number of MRSA colonies on each plate was counted and an average CFU/mL was determined for treated and untreated samples. […] The statistical differences in colonization were evaluated using an unpaired two-tailed Student’s t test to compare pretreated (control colonization; CC), untreated control (PBS), and STIP3-29 treated groups.

[14] = system: 3D EpiDerm skin tissues; experiment: Tissue cytotoxicity, alamarBlue; format: cell-based, human; conditions: 250 μg/mL (40-fold the MIC), 24 h, data not shown
Description: Cytotoxicity was measured using the 3D EpiDerm skin tissues and HeLa (ATCC CCL-2) cells using a fluorescent reporter of cell viability, alamarBlue (ThermoFisher Scientific). 3D EpiDerm skin tissues (MatTek EPI-200-AFAB) were transferred to a 12-well plate containing 600 μL of AFAB-assay medium supplemented with 10% vol/vol alamarBlue. […] HeLa cells were seeded in a 96-well plate at 2 × 10^4 cells/per well and incubated overnight at 37°C in a humidified 5% CO2 environment to prepare wells at ∼50% confluence for treatments after spent Dulbecco’s modified Eagle’s medium (DMEM) was removed and cells were washed with PBS. Assays were then performed using phenol red-free DMEM supplement with 9% vol/vol alamarBlue and peptide concentrations varying from 3.13 to 200 μg/mL. After a 24 h incubation period, alamarBlue fluorescence emission was measured at 590 nm upon excitation at 560 nm using Varioskan Lux plate reader (Thermo Scientific). Fluorescence intensities of treated cultures were normalized to measurement made for untreated control samples. Experimental data sets were fit to nonlinear dose-response curves to determine IC50 values using Origin 2019.

Q: With TVGGLVKWILKTVKKFA-NH2 [STIP3-29] as the substance, how does the “Improvement to antibiotic activity relative to STIP3-1” value ([1]; S. aureus ATCC 29213 and MRSA panel MICs) read?
A: 16 fold

Q: And the “MIC (μg/mL) for MRSA ATCC 33592” value ([1]; Table 1 and text, cation-adjusted MH broth, ~10^5 CFU/mL, 37°C, 16 h)?
A: 6.25 µg/mL

Q: What about the “MIC, S. aureus ATCC 33592 (SCCmec III)” value ([1]; Table S5, STIP3 variants, highest conc. tested 100 μg/mL, cation-adjusted MH broth, ~10^5 CFU/mL, 2-fold dilution series, 37°C, 16 h) of the same substance?
A: 6.25 µg/mL

Q: And the “MIC for MRSA, molar” value ([1]; conversion of 6.25 μg/mL)?
A: 3.3 µM

Q: What about the “MIC, S. aureus ATCC BAA 1683 (SCCmec IV)” value [2] of the same substance?
A: 6.25 µg/mL

Q: And the “MIC, S. aureus ATCC BAA 2094 (SCCmec V)” value [3]?
A: 6.25 µg/mL

Q: What about the “MIC, S. aureus ATCC BAA 2313 (SCCmec XI)” value [4] of the same substance?
A: 6.25 µg/mL

Q: And the “MIC, S. aureus ATCC BAA 41 (SCCmec II)” value [5]?
A: 6.25 µg/mL

Q: And the “MIC, S. aureus ATCC 29213” value [6]?
A: 12.5 µg/mL

Q: And the “MIC, S. equorum” value [7]?
A: 3.13 µg/mL

Q: What about the “MIC, Escherichia coli DH10B” value [8] of the same substance?
A: 12.5 µg/mL

Q: And the “MIC, Mannheimia haemolytica ATCC 33396” value [9]?
A: 6.25 µg/mL

Q: What about the “MIC, Pseudomonas aeruginosa ATCC 27853” value [10] of the same substance?
A: 50 µg/mL

Q: What about the “MIC, S. scuri” value [11] of the same substance?
A: 3.13 µg/mL

Q: What about the “α-Helical content (%)” value [12] of the same substance?
A: 61%

Q: And the “Effect on the MRSA population on colonized NHEK tissue” value [13]?
A: prevented the expansion of the MRSA population

Q: What about the “Tissue-level cytotoxicity, redox-sensitive dye” value [14] of the same substance?
A: unable to differentiate STIP3-29-treated and untreated samples
